From patent publication US20150290235A1, “USE OF SMALL MOLECULE INHIBITORS/ACTIVATORS IN COMBINATION WITH (DEOXY)NUCLEOSIDE OR (DEOXY)NUCLEOTIDE ANALOGS FOR TREATMENT OF CANCER AND HEMATOLOGICAL MALIGNANCIES OR VIRAL INFECTIONS” (AB SCIENCE, priority 2012, published 2015)
Where two headings read alike, the source gives them in different places. Marks after values point to notes of the source that are not given here.

Assays:
[1] = test system: BxPC-3 pancreatic cancer cells; assay: WST-1 proliferation assay, BxPC-3; format: cell-based, human
Protocol: (§1) Cancer cell lines: Pancreatic cancer cells lines (Mia Paca-2, Panc-1, BxPC-3 and Capan-2) were obtained from Dr. Juan Iovanna (Inserm, France). Cells were maintained in RPMI (BxPC-3, Capan-2) or DMEM (Mia Paca-2, Panc-1) medium containing glutamax-1 (Lonza), supplemented with 100 U/ml penicillin/100 μg/ml streptomycin, and 10% fetal calf serum (FCS) (AbCys, Lot S02823S1800). Expression of tyrosine kinases was determined by RT-PCR using Hot Star Taq (Qiagen GmbH, Hilden, Germany) in a 2720 Thermal Cycler (Applied Biosystems).
(§2) Treatment was started with the addition of the respective drug. […] After 72 hours WST-1 reagent was added and incubated with the cells for 4 hours before absorbance measurement at 450 nm in an EL800 Universal Microplate Reader (Bio-Tek Instruments Inc.). Media alone was used as a blank and proliferation in the absence of compounds served as positive control. Results are representative of three/four experiments.

[2] = test system: Capan-2 pancreatic cancer cells; assay: WST-1 proliferation assay, Capan-2; format: cell-based, human; settings: Homo sapiens
Protocol: as §1, §2

[3] = test system: Mia Paca-2 pancreatic cancer cells; assay: WST-1 proliferation assay, Mia Paca-2; format: cell-based, human; settings: Homo sapiens
[4] = test system: Panc-1 pancreatic cancer cells; assay: WST-1 proliferation assay, Panc-1; format: cell-based, human; settings: Homo sapiens
Protocol: as §1, §2

[5] = test system: MDAMB 231 breast cancer cells; assay: WST-1 proliferation/survival assay, MDAMB 231; format: cell-based; settings: Homo sapiens, MDA-MB-231, read-out: Gemcitabine IC50
Protocol: (§3) Gemcitabine (Gemzar, Lilly France) was obtained as a powder and dissolved in sterile 0.9% NaCl solution and stored as aliquots at −80° C. Fresh dilutions were prepared fcr each experiment. Cell lines: Colon and prostate cancer cell lines (Dr. Juan Iovanna, INSERM U624, Marseille, France), breast and ovarian cancer cell lines (Dr. Patrice Dubreuil, UMR 599 INSERM, Marseille, France), and lung cancer cell lines (Pr. Christian Auclair, UMR 8113 CNRS) were cultured as monolayers in RPMI 1640 medium containing L-glutamine supplemented with 100 U/ml penicillin and 100 μg/ml streptomycin, and 10% v/v heat-inactivated fetal calf serum (AbCys Lot S02823S1800) under standard culture conditions (5% CO2, 95% air in humidified chamber at 37° C.). In proliferation assays, all cells were grown in medium containing 1% FCS.
as §2, with “control (DMSO control). The new IC50 was scored and the results” for “control. Results”, “3-4” for “three/four”

[6] = test system: MDAMB 134 breast cancer cells; assay: WST-1 proliferation/survival assay, MDAMB 134; format: cell-based; settings: Homo sapiens, read-out: Gemcitabine IC50
Protocol: as §3
as §2, with “control (DMSO control). The new IC50 was scored and the results” for “control. Results”, “3-4” for “three/four”

BT20 breast cancer cells = assay: WST-1 proliferation/survival assay, BT20; format: cell-based; settings: Homo sapiens, BT-20, read-out: Gemcitabine IC50
Protocol: as §3
as §2, with “control (DMSO control). The new IC50 was scored and the results” for “control. Results”, “3-4” for “three/four”

[7] = test system: BT474 breast cancer cells; assay: WST-1 proliferation/survival assay, BT474; format: cell-based; settings: Homo sapiens, BT-474, read-out: Gemcitabine IC50
Protocol: as §3
as §2, with “control (DMSO control). The new IC50 was scored and the results” for “control. Results”, “3-4” for “three/four”

[8] = test system: LnCaP prostate cancer cells; assay: WST-1 proliferation/survival assay, LnCaP; format: cell-based; settings: Homo sapiens, read-out: Gemcitabine IC50
Protocol: as §3
as §2, with “control (DMSO control). The new IC50 was scored and the results” for “control. Results”, “3-4” for “three/four”

[9] = test system: DU145 prostate cancer cells; assay: WST-1 proliferation/survival assay, DU145; format: cell-based; settings: Homo sapiens, DU-145, read-out: Gemcitabine IC50
Protocol: as §3
as §2, with “control (DMSO control). The new IC50 was scored and the results” for “control. Results”, “3-4” for “three/four”

[10] = test system: OVCAR3 ovarian cancer cells; assay: WST-1 proliferation/survival assay, OVCAR3; format: cell-based; settings: Homo sapiens, OVCAR-3, read-out: Gemcitabine IC50
Protocol: as §3
as §2, with “control (DMSO control). The new IC50 was scored and the results” for “control. Results”, “3-4” for “three/four”

[11] = test system: CaCo-2 colorectal cancer cells; assay: WST-1 proliferation/survival assay, CaCo-2; format: cell-based; settings: Homo sapiens, read-out: Gemcitabine IC50
Protocol: as §3
as §2, with “control (DMSO control). The new IC50 was scored and the results” for “control. Results”, “3-4” for “three/four”

[12] = test system: HRT118 colorectal cancer cells; assay: WST-1 proliferation/survival assay, HRT118; format: cell-based; settings: Homo sapiens, read-out: Gemcitabine IC50
Protocol: as §3
as §2, with “control (DMSO control). The new IC50 was scored and the results” for “control. Results”, “3-4” for “three/four”

A549 NSCLC cells = assay: WST-1 proliferation/survival assay, A549; format: cell-based; settings: Homo sapiens, read-out: Gemcitabine IC50
Protocol: as §3
as §2, with “control (DMSO control). The new IC50 was scored and the results” for “control. Results”, “3-4” for “three/four”

H1299 NSCLC cells = assay: WST-1 proliferation/survival assay, H1299; format: cell-based; settings: Homo sapiens, NCI-H1299, read-out: Gemcitabine IC50
Protocol: as §3
as §2, with “control (DMSO control). The new IC50 was scored and the results” for “control. Results”, “3-4” for “three/four”

H1650 NSCLC cells = assay: WST-1 proliferation/survival assay, H1650; format: cell-based; settings: Homo sapiens, NCI-H1650, read-out: Gemcitabine IC50
Protocol: as §3
as §2, with “control (DMSO control). The new IC50 was scored and the results” for “control. Results”, “3-4” for “three/four”

[13] = test system: Abrams osteosarcoma cells; assay: Alamar Blue cell proliferation assay, Abrams; format: cell-based, canine; settings: Canis lupus familiaris, 72 h, read-out: Combination IC50 (chemotherapeutic agent with fixed masitinib)
D17 osteosarcoma cells = assay: Alamar Blue cell proliferation assay, D17; format: cell-based, canine; settings: Canis lupus familiaris, 72 h, read-out: Combination IC50 (chemotherapeutic agent with fixed masitinib)
[14] = test system: CMT12 breast carcinoma cells; assay: Alamar Blue cell proliferation assay, CMT12; format: cell-based, canine; settings: Canis lupus familiaris, Breast carcinoma cell, 72 h, read-out: Combination IC50 (chemotherapeutic agent with fixed masitinib)
[15] = test system: CMT27 breast carcinoma cells; assay: Alamar Blue cell proliferation assay, CMT27; format: cell-based, canine; settings: Canis lupus familiaris, Breast carcinoma cell, 72 h, read-out: Combination IC50 (chemotherapeutic agent with fixed masitinib)
C2 mastocytoma cells = assay: Alamar Blue cell proliferation assay, C2; format: cell-based, canine; settings: Canis lupus familiaris, 72 h, read-out: Combination IC50 (chemotherapeutic agent with fixed masitinib)
[16] = test system: Mia Paca-2 pancreatic tumors; assay: Nog-SCID mouse model of human pancreatic cancer; format: in vivo, Nog-SCID mice; settings: day 56, 28 days of treatment; control 1023

- IC50 ([1]; BxPC-3, 72 hours, 1% FCS, read-out: IC50, single agent): 2 to 20 µM
- IC50 ([1]; Homo sapiens, BXPC-3, read-out: IC50 of gemcitabine plus 5 μM masitinib, BxPC-3, masitinib overnight before gemcitabine): 10 µM
- IC50 ([1]; Homo sapiens, BXPC-3, read-out: IC50 of gemcitabine plus 10 μM masitinib, BxPC-3, masitinib overnight before gemcitabine): 10 µM
- IC50 ([2]; Capan-2, 72 h, Capan-2, 72 hours, 1% FCS, read-out: IC50, single agent): 2 to 20 µM
- IC50 ([2]; Capan-2, read-out: IC50 of gemcitabine plus 5 μM masitinib, Capan-2, masitinib overnight before gemcitabine): 2 µM
- IC50 ([3]; MIA PaCa-2, read-out: IC50 of gemcitabine plus 5 μM masitinib): 1.5 µM
- IC50 ([3]; MIA PaCa-2, read-out: IC50 of gemcitabine plus 10 μM masitinib): 0.025 µM
- IC50 ([3]; Mia Paca-2, 72 hours, 1% FCS, read-out: IC50, single agent): > 10 µM
- IC50 ([3]; Mia Paca-2, read-out: IC50, single agent (resistance)): > 2500 µM
- IC50 ([4]; PANC-1, read-out: IC50 of gemcitabine plus 5 μM masitinib): 8 µM
- IC50 ([4]; PANC-1, read-out: IC50 of gemcitabine plus 10 μM masitinib): 1 µM
- IC50 ([4]; Panc-1, 72 hours, 1% FCS, read-out: IC50, single agent): > 10 µM
- IC50 ([4]; Panc-1, read-out: IC50, single agent (resistance)): > 2500 µM
- IC50 [13]: 1 µM
- IC50 (D17 osteosarcoma cells): 1.3 µM
- IC50 [14]: 10.8 µM
- IC50 [15]: 1.3 µM
- IC50 (C2 mastocytoma cells): > 100 µM
SMILES: Nc1ccn([C@@H]2O[C@H](CO)[C@@H](O)C2(F)F)c(=O)n1 [Gemcitabine, 4-amino-1-(2-deoxy-2,2-difluoro-β-D-erythro-pentofuranosyl)pyrimidin-2(1H)-on 2′,2′-difluoro-2′-deoxycytidine]
- IC50 [5]: 100 µM
- IC50 [6]: 100 µM
- IC50 (BT20 breast cancer cells): 50 µM
- IC50 [7]: 100 µM
- IC50 [8]: 25 to 100 µM
- IC50 [9]: 100 µM
- IC50 [10]: 50 µM
- IC50 [11]: > 100 µM
- IC50 [12]: > 100 µM
- IC50 (A549 NSCLC cells): 100 µM
- IC50 (H1299 NSCLC cells): 100 µM
- IC50 (H1650 NSCLC cells): 5 µM
- Tumor Volume, Median [16]: 662* mm^3
